Experimental data taken from patent publication US20230083973A1, “SUBSTITUTED CYCLOPROPYL-2,2'-BIP[…], ANALOGUES THEREOF, AND METHODS USING SAME” (priority 2019, published 2023).
pEC50: −log10 of the molar value. Read-outs that look alike come from different tables or passages of the source.

Tested on: HBsAg
Experiment: HBsAg assay: inhibition of HBsAg in HepG2.2.15 cells (chemiluminescence immunoassay of supernatant)
Assay type: cell-based, hepatitis B virus
Details: HBsAg in supernatant at day 6 after exposure to compound, 0.5% DMSO
Outline: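 HepG2.2.15 cells treated with serially diluted compounds (0.5% DMSO), medium and compound refreshed after 2–3 days, supernatant harvested at day 6. Secreted HBsAg measured by chemiluminescence immunoassay; EC50 from dose-response curves, with parallel CellTiter-Glo viability at 5,000 cells/well.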

[1] = read-out: sAg EC50, HepG2.2.15 cells
[2] = Hepatitis B virus, HepG2.2.15, 144 h, read-out: sAg EC50, HepG2.2.15 cells

Structure (SMILES) | pEC50 [1] | pEC50 [2]
COc1ccc(C2CC2c2cnc(-c3ncccn3)nc2)c(F)c1 (single isomer, unassigned) [Example 2, trans-5-(2-(2-Fluoro-4-methoxyphenyl)cyclopropyl)-2,2′-bipyrimidine] | 6.64 | 
O[C@H]1CCN(c2cc(C3CC3c3cnc(-c4ncccn4)nc3)ccc2F)C1 (single isomer, unassigned) [Example 66] | 6.64 | 
Fc1cc([C@@H]2C[C@H]2c2cnc(-c3ncccn3)nc2)cc(OCc2nccs2)c1F (relative stereo) [Example 218, trans-2-((5-(2-([2,2′-Bipyrimidin]-5-yl)cyclopropyl)-2,3-difluorophenoxy)methyl)thiazole] |  | 7.24
Cn1cnc(COc2cc([C@@H]3C[C@H]3c3cnc(-c4ncccn4)nc3)cc(F)c2F)n1 (relative stereo) [Example 217, trans-5-(2-(3,4-Difluoro-5-((1-methyl-1H-1,2,4-triazol-3-yl)methoxy)phenyl)cyclopropyl)-2,2′-bipyrimidine] |  | 6.70
OCc1cnn(-c2cc([C@@H]3C[C@H]3c3cnc(-c4ncccn4)nc3)cc(F)c2F)c1 (relative stereo) [Example 234, trans-(1-(5-(2-([2,2′-Bipyrimidin]-5-yl)cyclopropyl)-2,3-difluorophenyl)-1H-pyrazol-4-yl)methanol] |  | 6.85
COc1cc(C2CC2c2cnc(-c3ncccn3)nc2)cnc1OC (single isomer, unassigned) [Example 184, trans-5-(2-(5,6-Dimethoxypyridin-3-yl)cyclopropyl)-2,2′-bipyrimidine] | 5.96 | 
COc1cc([C@@H]2C[C@H]2c2cnc(-c3ncccn3)nc2)cc(C(F)(F)F)c1 (relative stereo) [Example 163, trans-5-(2-(3-Methoxy-5-(trifluoromethyl)phenyl)cyclopropyl)-2,2′-bipyrimidine] |  | 6.85
CC(=O)Nc1cc(C2CC2c2cnc(-c3ncccn3)nc2)ccc1Cl (single isomer, unassigned) [Example 205, trans-N-(5-(2-([2,2′-Bipyrimidin]-5-yl)cyclopropyl)-2-chlorophenyl)acetamide] |  | 6.29
COCCCn1ncc2c(F)cc([C@@H]3C[C@H]3c3cnc(-c4ncccn4)nc3)cc21 (relative stereo) [Example 275, trans-6-(2-([2,2′-Bipyrimidin]-5-yl)cyclopropyl)-4-fluoro-1-(3-methoxypropyl)-1H-indazole] |  | 7.12
Fc1cc(C2CC2c2cnc(-c3ncccn3)nc2)cc(OCC2CC2)c1F (single isomer, unassigned) [Example 128, trans-5-(2-(3-(Cyclopropylmethoxy)-4,5-difluorophenyl)cyclopropyl)-2,2′-bipyrimidine] | 6.38 | 
COc1cc(F)ccc1[C@@H]1C[C@H]1c1cnc(-c2ncccn2)nc1 (relative stereo) [Example 7, trans-5-(2-(4-Fluoro-2-methoxyphenyl)cyclopropyl)-2,2′-bipyrimidine] |  | 6.43
COCCCn1cc2c(F)cc(C3CC3c3cnc(-c4ncccn4)nc3)cc2n1 (single isomer, unassigned) [Example 268, trans-6-(2-([2,2′-Bipyrimidin]-5-yl)cyclopropyl)-4-fluoro-2-(3-methoxypropyl)-2H-indazole] | 8.00 | 
COc1cc(C2CC2c2cnc(-c3ncccn3)nc2)c(-c2ccccc2)cc1Cl (single isomer, unassigned) [Example 159, trans-5-(2-(5-Chloro-4-methoxy-[1,1′-biphenyl]-2-yl)cyclopropyl)-2,2′-bipyrimidine] | 4.31 | 
COc1cc(C2CC2c2cnc(-c3ncccn3)nc2)c(-c2ccccc2)cc1Cl (single isomer, unassigned) [Example 158, trans-5-(2-(5-Chloro-4-methoxy-[1,1′-biphenyl]-2-yl)cyclopropyl)-2,2′-bipyrimidine] | 5.52 | 
COc1cc(C2CC2c2cnc(-c3ncccn3)c3ccccc23)ccc1F (single isomer, unassigned) [Example 194, trans-4-(2-(4-Fluoro-3-methoxyphenyl)cyclopropyl)-1-(pyrimidin-2-yl)isoquinoline] | 4.31 | 
CO[C@H]1CCN(c2cc(C3CC3c3cnc(-c4ncccn4)nc3)ccc2F)C1 (single isomer, unassigned) [Example 67] | 6.74 | 
O[C@H]1CCN(c2cc(C3CC3c3cnc(-c4ncccn4)nc3)cc(Cl)c2F)C1 (single isomer, unassigned) [Example 121] | 7.96 | 
Fc1ccc(C2CC2c2cnc(-c3ncccn3)nc2)cc1F (single isomer, unassigned) [Example 15, trans-5-(2-(3,4-Difluorophenyl)cyclopropyl)-2,2′-bipyrimidine] | 7.12 | 
O[C@@H]1CCN(c2cc(C3CC3c3cnc(-c4ncccn4)nc3)ccc2F)C1 (single isomer, unassigned) [Example 69] |  | 6.77

Structure (SMILES) | pEC50 [1] | pEC50 [2]
CN1CCN(c2cc(C3CC3c3cnc(-c4ncccn4)nc3)ccc2F)CC1 (single isomer, unassigned) [Example 187, trans-5-(2-(4-Fluoro-3-(4-methylpiperazin-1-yl)phenyl)cyclopropyl)-2,2′-bipyrimidine] | 4.82 | 
COc1cc(C2CC2c2cnc(-c3ncccn3)nc2)cc(F)c1Cl (single isomer, unassigned) [Example 45, trans-5-(2-(4-Chloro-3-fluoro-5-methoxyphenyl)cyclopropyl)-2,2′-bipyrimidine] | 6.57 | 
COc1cc(C2CC2c2cnc(-c3ncccn3)nc2)cc(OC)c1F (single isomer, unassigned) [Example 146, trans-5-(2-(4-Fluoro-3,5-dimethoxyphenyl)cyclopropyl)-2,2′-bipyrimidine] | 6.96 | 
COc1cc(C2CC2c2cnc(-c3ncccn3)nc2)cc(C)c1F (single isomer, unassigned) [Example 150, trans-5-(2-(4-Fluoro-3-methoxy-5-methylphenyl)cyclopropyl)-2,2′-bipyrimidine] | 6.00 | 
COc1cc(C2CC2c2cnc(-c3ncccn3)nc2OC)ccc1F (single isomer, unassigned) [Example 81, trans-5-(2-(4-Fluoro-3-methoxyphenyl)cyclopropyl)-4-methoxy-2,2′-bipyrimidine] | 6.64 | 
COCCCn1cc2c([C@@H]3C[C@H]3c3cnc(-c4ncccn4)nc3)ccc(F)c2n1 (relative stereo) [Example 277, trans-4-(2-([2,2′-Bipyrimidin]-5-yl)cyclopropyl)-7-fluoro-2-(3-methoxypropyl)-2H-indazole] |  | 7.52
Fc1cc(C2CC2c2cnc(-c3ncccn3)nc2)cc(N2CC(c3ccccc3)C2)c1F (single isomer, unassigned) [Example 255, trans-5-(2-(3,4-Difluoro-5-(3-phenylazetidin-1-yl)phenyl)cyclopropyl)-2,2′-bipyrimidine] | 6.11 | 
Fc1ccc(C2CC2c2ccnc(-c3ncccn3)n2)cc1F (single isomer, unassigned) [Example 5, trans-4-(2-(3,4-Difluorophenyl)cyclopropyl)-2,2′-bipyrimidine] |  | 5.30
Fc1cc([C@@H]2C[C@H]2c2cnc(-c3ncccn3)nc2)cc(F)c1F (relative stereo) [Example 160, trans-5-(2-(3,4,5-Trifluorophenyl)cyclopropyl)-2,2′-bipyrimidine] |  | 6.57
CO[C@H]1CN(c2cc(C3CC3c3cnc(-c4ncccn4)nc3)cc(F)c2F)C[C@H]1OC (relative stereo) [Example 235, trans-5-(2-(3-((3R,4S)-3,4-Dimethoxypyrrolidin-1-yl)-4,5-difluorophenyl)cyclopropyl)-2,2′-bipyrimidine] |  | 7.41
Oc1cnn(-c2cc(C3CC3c3cnc(-c4ncccn4)nc3)cc(F)c2F)c1 (single isomer, unassigned) [Example 260, trans-1-(5-(2-([2,2′-Bipyrimidin]-5-yl)cyclopropyl)-2,3-difluorophenyl)-1H-pyrazol-4-ol] | 6.17 | 
COc1cc(C2CC2c2cnc(-c3ncccn3)nc2)cc(Cl)c1Cl (single isomer, unassigned) [Example 60, trans-5-(2-(3,4-Dichloro-5-methoxyphenyl)cyclopropyl)-2,2′-bipyrimidine] | 6.60 | 
CN(C)c1cc(C2CC2c2cnc(-c3ncccn3)nc2)ccc1F (single isomer, unassigned) [Example 64, trans-5-(2-([2,2′-Bipyrimidin]-5-yl)cyclopropyl)-2-fluoro-N,N-dimethylaniline] | 5.52 | 
CNC(=O)c1cc(C2CC2c2cnc(-c3ncccn3)nc2)ccc1Cl (single isomer, unassigned) [Example 201, trans-5-(2-([2,2′-Bipyrimidin]-5-yl)cyclopropyl)-2-chloro-N-methylbenzamide] | 5.05 | 
COc1cc(C2CC2c2cnc(-c3ncccn3)nc2)cc(C)c1Cl (single isomer, unassigned) [Example 58, trans-5-(2-(4-Chloro-3-methoxy-5-methylphenyl)cyclopropyl)-2,2′-bipyrimidine] | 6.54 | 
Fc1cc(C2CC2c2cnc(-c3ncccn3)nc2)cc(F)c1F (single isomer, unassigned) [Example 161, trans-5-(2-(3,4,5-Trifluorophenyl)cyclopropyl)-2,2′-bipyrimidine] | 5.00 | 
CCCc1cc(F)c(OC)cc1C1CC1c1cnc(-c2ncccn2)nc1 (single isomer, unassigned) [Example 38, trans-5-(2-(4-Fluoro-5-methoxy-2-propylphenyl)cyclopropyl)-2,2′-bipyrimidine] | 6.82 | 
Fc1cc(C2CC2c2cnc(-c3ncccn3)nc2)cc(O[C@@H]2CCOC2)c1F (single isomer, unassigned) [Example 248] | 6.00 | 
COc1c(F)ccc(C2CC2c2cnc(-c3ncccn3)nc2)c1F (single isomer, unassigned) [Example 189, trans-5-(2-(2,4-Difluoro-3-methoxyphenyl)cyclopropyl)-2,2′-bipyrimidine] | 6.92 | 
